Experimental data taken from US20190367516A1 (Bayer Pharma Aktiengesellschaft, priority 2015, published 2019).
Read-outs that look alike come from different tables or passages of the source.

Target: T1, human M2 receptor (Homo sapiens, UniProt P08172)
T1 sequence (P08172 1-466): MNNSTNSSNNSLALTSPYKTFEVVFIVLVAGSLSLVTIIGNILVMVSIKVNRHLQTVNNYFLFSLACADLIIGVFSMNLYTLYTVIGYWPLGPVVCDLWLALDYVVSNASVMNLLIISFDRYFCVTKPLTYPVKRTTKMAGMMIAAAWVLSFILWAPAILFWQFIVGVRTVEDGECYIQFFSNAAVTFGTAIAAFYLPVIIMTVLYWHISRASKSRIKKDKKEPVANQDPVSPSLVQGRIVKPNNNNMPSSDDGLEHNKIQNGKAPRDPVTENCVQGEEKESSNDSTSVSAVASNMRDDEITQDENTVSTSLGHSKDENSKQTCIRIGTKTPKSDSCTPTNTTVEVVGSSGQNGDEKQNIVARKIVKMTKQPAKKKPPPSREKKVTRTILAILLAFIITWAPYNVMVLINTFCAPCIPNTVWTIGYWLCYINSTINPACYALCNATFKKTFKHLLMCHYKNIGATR

[1] = Receptor activity EC50, M2-GIRK1/4 activation test, acetylcholine at EC20, allosteric potency, in some cases mean values from two or more determinations
[2] = Receptor activity EC50, allosteric potency at EC20 acetylcholine, M2-GIRK1/4 reporter cells, in some cases mean of two or more determinations
[3] = read-out: Efficiency, boosting of the acetylcholine effect at EC20 acetylcholine concentration, M2-GIRK1/4 reporter cells

SMILES	EC50 [1] [nM]	further results
Cc1ccc(C(NC(=O)c2cn(-c3ccc(F)cc3F)c3nc(N(C)C)ccc3c2=O)C(F)(F)F)cc1 (racemic) [Example 141, rac-1-(2,4-Difluorophenyl)-7-(dimethylamino)-4-oxo-N-[2,2,2-trifluoro-1-(4-methylphenyl)ethyl]-1,4-dihydro-1,8-naphthyridine-3-carboxamide]	83	
Cc1ccccc1C(NC(=O)c1cn(-c2ccc(F)cc2F)c2nc(N(C)C)ccc2c1=O)C(F)(F)F (racemic) [Example 142, rac-1-(2,4-Difluorophenyl)-7-(dimethylamino)-4-oxo-N-[2,2,2-trifluoro-1-(2-methylphenyl)ethyl]-1,4-dihydro-1,8-naphthyridine-3-carboxamide]	110	
CN(C)c1ccc2c(=O)c(C(=O)NC(Cc3ccccc3)C(F)(F)F)cn(-c3ccc(F)cc3F)c2n1 (racemic) [Example 143, rac-1-(2,4-Difluorophenyl)-7-(dimethylamino)-4-oxo-N-(1,1,1-trifluoro-3-phenylpropan-2-yl)-1,4-dihydro-1,8-naphthyridine-3-carboxamide]	37	
CCCC(NC(=O)c1cn(-c2ccc(F)cc2F)c2nc(N(C)C)ccc2c1=O)C(F)(F)F (racemic) [Example 144, rac-1-(2,4-Difluorophenyl)-7-(dimethylamino)-4-oxo-N-(1,1,1-trifluoropentan-2-yl)-1,4-dihydro-1,8-naphthyridine-3-carboxamide]	32	
CC(C)CC(NC(=O)c1cn(-c2ccc(F)cc2F)c2nc(N(C)C)ccc2c1=O)C(F)(F)F (racemic) [Example 145, rac-1-(2,4-Difluorophenyl)-7-(dimethylamino)-4-oxo-N-(1,1,1-trifluoro-4-methylpentan-2-yl)-1,4-dihydro-1,8-naphthyridine-3-carboxamide]	30	
CCC(NC(=O)c1cn(-c2ccc(F)cc2F)c2nc(N(C)C)ccc2c1=O)C(F)(F)F (racemic) [Example 146, rac-1-(2,4-Difluorophenyl)-7-(dimethylamino)-4-oxo-N-(1,1,1-trifluorobutan-2-yl)-1,4-dihydro-1,8-naphthyridine-3-carboxamide]	26	
CC(NC(=O)c1cn(-c2ccc(F)cc2F)c2nc(N(C)C)ccc2c1=O)C(F)(F)F (racemic) [Example 147, rac-1-(2,4-Difluorophenyl)-7-(dimethylamino)-4-oxo-N-(1,1,1-trifluoropropan-2-yl)-1,4-dihydro-1,8-naphthyridine-3-carboxamide]	82	
CN(C)c1ccc2c(=O)c(C(=O)NC(C3CC3)C(F)(F)F)cn(-c3ccc(F)cc3F)c2n1 (racemic) [Example 148, rac-N-(1-Cyclopropyl-2,2,2-trifluoroethyl)-1-(2,4-difluorophenyl)-7-(dimethylamino)-4-oxo-1,4-dihydro-1,8-naphthyridine-3-carboxamide]	41	
CC(C)C(NC(=O)c1cn(-c2ccc(F)cc2F)c2nc(N(C)C)ccc2c1=O)C(F)(F)F (racemic) [Example 150, rac-1-(2,4-Difluorophenyl)-7-(dimethylamino)-4-oxo-N-(1,1,1-trifluoro-3-methylbutan-2-yl)-1,4-dihydro-1,8-naphthyridine-3-carboxamide]	72	
CC(COC(F)(F)F)NC(=O)c1cn(-c2ccc(F)cc2F)c2nc(N3CCCC3=O)ccc2c1=O (racemic) [Example 230, rac-1-(2,4-Difluorophenyl)-4-oxo-7-(2-oxopyrrolidin-1-yl)-N-[1-(trifluoromethoxy)propan-2-yl]-1,4-dihydro-1,8-naphthyridine-3-carboxamide]	203	
O=C(NC(c1c(F)cccc1F)C(F)(F)F)c1cn(-c2ccc(F)cc2F)c2nc(N3CCC(O)CC3=O)ccc2c1=O (racemic) [Example 252, rac-1-(2,4-Difluorophenyl)-N-[1-(2,6-difluorophenyl)-2,2,2-trifluoroethyl]-7-[4-hydroxy-2-oxopiperidin-1-yl]-4-oxo-1,4-dihydro-1,8-naphthyridine-3-carboxamide]	109	
CC[C@@H](NC(=O)c1cn(-c2c(F)cccc2F)c2nc(N3CC(CO)OC3=O)ccc2c1=O)C(F)(F)F (mixture of isomers) [Example 260, rac-1-(2,6-Difluorophenyl)-7-[5-(hydroxymethyl)-2-oxo-1,3-oxazolidin-3-yl]-4-oxo-N-[(2R)-1,1,1-trifluorobutan-2-yl]-1,4-dihydro-1,8-naphthyridine-3-carboxamide]	280	
CC[C@@H](NC(=O)c1cn(-c2ccc(F)cc2F)c2nc(N3CCOC(C(F)F)C3)ccc2c1=O)C(F)(F)F (mixture of isomers) [Example 263, 7-[2-(Difluoromethyl)morpholin-4-yl]-1-(2,4-difluorophenyl)-4-oxo-N-[(2R)-1,1,1-trifluorobutan-2-yl]-1,4-dihydro-1,8-naphthyridine-3-carboxamide]	440	
O=C(NC(C1CC1)C(F)(F)F)c1cn(-c2ccc(F)cc2F)c2nc(N3C[C@@H](O)CC3=O)ccc2c1=O (mixture of isomers) [Example 283]	40	
CC[C@@H](NC(=O)c1cn(-c2c(F)cccc2F)c2nc(N3CCC(O)C3=O)ccc2c1=O)C(F)(F)F (mixture of isomers) [Example 292, 1-(2,6-Difluorophenyl)-7-[3-hydroxy-2-oxopyrrolidin-1-yl]-4-oxo-N-[(2R)-1,1,1-trifluorobutan-2-yl]-1,4-dihydro-1,8-naphthyridine-3-carboxamide]	59	
C[C@H](NC(=O)c1cn(-c2c(F)cc(F)cc2F)c2nc(N3CC4CC4(O)C3)ccc2c1=O)C(F)(F)F (mixture of isomers) [Example 316, 7-[1-Hydroxy-3-azabicyclo[3.1.0]hex-3-yl]-4-oxo-1-(2,4,6-trifluorophenyl)-N-[(2S)-1,1,1-trifluoropropan-2-yl]-1,4-dihydro-1,8-naphthyridine-3-carboxamide]	28	
O=C(N[C@H](C1CC1)C(F)(F)F)c1cn(-c2c(F)cccc2F)c2nc(N3CC4CC4(O)C3)ccc2c1=O (mixture of isomers) [Example 319, N-[(1R)-1-Cyclopropyl-2,2,2-trifluoroethyl]-1-(2,6-difluorophenyl)-7-[1-hydroxy-3-azabicyclo[3.1.0]hex-3-yl]-4-oxo-1,4-dihydro-1,8-naphthyridine-3-carboxamide]	25	
CC1(O)CCN(c2ccc3c(=O)c(C(=O)NC(C4CC4)C(F)(F)F)cn(-c4c(F)cccc4F)c3n2)C1 (racemic) [Example 326, N-[1-Cyclopropyl-2,2,2-trifluoroethyl]-1-(2,6-difluorophenyl)-7-[3-hydroxy-3-methylpyrrolidin-1-yl]-4-oxo-1,4-dihydro-1,8-naphthyridine-3-carboxamide]	47	
CC[C@H](NC(=O)c1cn(-c2c(F)cc(F)cc2Cl)c2nc(N3CC4CC4(O)C3)ccc2c1=O)C(F)(F)F (mixture of isomers) [Example 413, 1-(2-Chloro-4,6-difluorophenyl)-7-[1-hydroxy-3-azabicyclo[3.1.0]hex-3-yl]-4-oxo-N-[(2S)-1,1,1-trifluorobutan-2-yl]-1,4-dihydro-1,8-naphthyridine-3-carboxamide]		EC50 [2]: 10 nM; Emax [3]: 100%
O=C(N[C@H](C1CC1)C(F)(F)F)c1cn(-c2c(F)cc(F)cc2Cl)c2nc(N3CC4CC4(O)C3)ccc2c1=O (mixture of isomers) [Example 415, 1-(2-Chloro-4,6-difluorophenyl)-N-[(1R)-1-cyclopropyl-2,2,2-trifluoroethyl]-7-[1-hydroxy-3-azabicyclo[3.1.0]hex-3-yl]-4-oxo-1,4-dihydro-1,8-naphthyridine-3-carboxamide]		EC50 [2]: 6 nM; Emax [3]: 96%
CC[C@H](NC(=O)c1cn(-c2c(F)cc(F)cc2F)c2nc(N3CC4CC4(O)C3)ccc2c1=O)C(F)(F)F (mixture of isomers) [Example 416, 7-[1-Hydroxy-3-azabicyclo[3.1.0]hex-3-yl]-4-oxo-N-[(2S)-1,1,1-trifluorobutan-2-yl]-1-(2,4,6-trifluorophenyl)-1,4-dihydro-1,8-naphthyridine-3-carboxamide]		EC50 [2]: 8 nM; Emax (read-out: Efficiency): 92%
CC[C@H](NC(=O)c1cn(-c2c(F)cccc2F)c2nc(N3CC4CC4(O)C3)ccc2c1=O)C(F)(F)F (mixture of isomers) [Example 417, 1-(2,6-Difluorophenyl)-7-[1-hydroxy-3-azabicyclo[3.1.0]hex-3-yl]-4-oxo-N-[(2S)-1,1,1-trifluorobutan-2-yl]-1,4-dihydro-1,8-naphthyridine-3-carboxamide]		EC50 [2]: 24 nM; Emax [3]: 100%
CC[C@@H](NC(=O)c1cn(-c2ccc(F)cc2F)c2nc(N3C(=O)CCC3C)ccc2c1=O)C(F)(F)F (mixture of isomers) [Example 426, 1-(2,4-Difluorophenyl)-7-[2-methyl-5-oxopyrrolidin-1-yl]-4-oxo-N-[(2R)-1,1,1-trifluorobutan-2-yl]-1,4-dihydro-1,8-naphthyridine-3-carboxamide]		EC50 [2]: 48 nM; Emax [3]: 92%
CC1CC(=O)N(c2ccc3c(=O)c(C(=O)N[C@@H](C4CC4)C(F)(F)F)cn(-c4c(F)cc(F)cc4Cl)c3n2)C1 (mixture of isomers) [Example 429, 1-(2-Chloro-4,6-difluorophenyl)-N-[(1 S)-1-cyclopropyl-2,2,2-trifluoroethyl]-7-[4-methyl-2-oxopyrrolidin-1-yl]-4-oxo-1,4-dihydro-1,8-naphthyridine-3-carboxamide]		EC50 [2]: 16 nM; Emax [3]: 99%
